Experimental data reported in patent US6995143B2, “Macrolides with antibacterial activity” (Basilea Pharmaceutica AG, priority 2002, dated 2006).
In brackets after ≈: the same amount, converted by molar mass.

Key:
Assay type in all cases: cell-based
[1] = tested on: Streptococcus pneumoniae ¼; assay: MIC, standard microdilution technique
Procedure, shortened: (§1)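 Values come from dilution susceptibility testing run to the National Committee for Clinical Laboratory Standards guideline M7-A5, the edition covering bacteria that grow aerobically.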

[2] = tested on: Staphylococcus aureus ATCC 29213; assay: MIC, standard microdilution technique
Procedure, shortened: as §1

[3] = tested on: Streptococcus pneumoniae 12288; assay: MIC, standard microdilution technique
Procedure, shortened: as §1

[4] = tested on: Staphylococcus aureus 745; assay: MIC, standard microdilution technique
Procedure, shortened: as §1

[5] = tested on: Escherichia coli ATCC 25922; assay: MIC, standard microdilution technique
Procedure, shortened: as §1

[6] = tested on: Streptococcus pneumoniae l/l; assay: MIC, standard microdilution technique
Procedure, shortened: as §1

[7] = tested on: Staphylococcus aureus 1086; assay: MIC, standard microdilution technique
Procedure, shortened: as §1

[8] = tested on: Streptococcus pneumoniae SL199T; assay: MIC, standard microdilution technique
Procedure, shortened: as §1

[9] = tested on: Haemophilus influenzae 12214; assay: MIC, standard agar dilution method using HTM medium
Procedure, shortened: (§2)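 Testing against H. influenzae followed the NCCLS 5th-edition approved standard for antimicrobial dilution tests. The MIC was taken as defined by that guideline.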

[10] = tested on: Haemophilus influenzae QK12/87; assay: as above
Procedure, shortened: as §2

[11] = tested on: Haemophilus influenzae B1501; assay: as above
Procedure, shortened: as §2

[12] = tested on: Haemophilus influenzae QK50; assay: as above
Procedure, shortened: as §2

Compound	minimum inhibitory concentration (MIC), Strain F [1]	minimum inhibitory concentration (MIC), Strain A [2]	minimum inhibitory concentration (MIC), Strain H [3]	minimum inhibitory concentration (MIC), Strain C [4]	minimum inhibitory concentration (MIC), Strain D [5]	minimum inhibitory concentration (MIC), Strain E [6]	minimum inhibitory concentration (MIC), Strain B [7]	minimum inhibitory concentration (MIC), Strain G [8]	minimum inhibitory concentration (MIC), Strain K [9]	minimum inhibitory concentration (MIC), Strain I [10]	minimum inhibitory concentration (MIC), Strain M [11]	minimum inhibitory concentration (MIC), Strain L [12]
CC[C@H]1OC(=O)[C@H](C)C(=O)[C@H](C)[C@@H](O[C@@H]2O[C@H](C)C[C@H](N(C)C)[C@H]2O)[C@](C)(OC)C[C@@H](C)C(=O)[C@H](C)[C@H]2[C@@H](S(=O)(=O)CCNC(=O)c3ccc4nonc4c3)C(=O)O[C@@]21C [Example 44]	<=0.06 μg/ml	0.5 µg/mL (≈ 0.578 µM)	>32 µg/mL	>32 µg/mL	>32 µg/mL	<=0.06 μg/ml	0.125 µg/mL (≈ 0.145 µM)	16 µg/mL (≈ 18.5 µM)	16 µg/mL (≈ 18.5 µM)	16 µg/mL (≈ 18.5 µM)	8 µg/mL (≈ 9.25 µM)	16 µg/mL (≈ 18.5 µM)
CC[C@H]1OC(=O)[C@@](C)(F)C(=O)[C@H](C)[C@@H](O[C@@H]2O[C@H](C)C[C@H](N(C)C)[C@H]2O)[C@](C)(OC)C[C@@H](C)C(=O)[C@H](C)[C@H]2[C@@H]([S+]([O-])CCCn3cnc4c(N)ncnc43)C(=O)O[C@@]21C (single isomer, unassigned) [Example 57]	0.125 µg/mL (≈ 0.147 µM)	2 µg/mL (≈ 2.34 µM)	32 µg/mL (≈ 37.5 µM)	>32 µg/mL	>32 µg/mL	<=0.06 μg/ml	2 µg/mL (≈ 2.34 µM)	1 µg/mL (≈ 1.17 µM)	8 µg/mL (≈ 9.38 µM)	4 µg/mL (≈ 4.69 µM)	4 µg/mL (≈ 4.69 µM)	8 µg/mL (≈ 9.38 µM)
CC[C@H]1OC(=O)[C@H](C)C(=O)[C@H](C)[C@@H](O[C@@H]2O[C@H](C)C[C@H](N(C)C)[C@H]2O)[C@](C)(OC)C[C@@H](C)C(=O)[C@H](C)[C@H]2[C@@H](SCCNC(=O)c3cccc4cccnc34)C(=O)O[C@@]21C (single isomer, unassigned) [Example 49]	<=0.06 μg/ml	<=0.06 μg/ml	16 µg/mL (≈ 19 µM)	>32 µg/mL	>32 µg/mL	<=0.06 μg/ml	<=0.06 μg/ml	2 µg/mL (≈ 2.38 µM)	16 µg/mL (≈ 19 µM)	4 µg/mL (≈ 4.75 µM)	4 µg/mL (≈ 4.75 µM)	4 µg/mL (≈ 4.75 µM)
CC[C@H]1OC(=O)[C@H](C)C(=O)[C@H](C)[C@@H](O[C@@H]2O[C@H](C)C[C@H](N(C)C)[C@H]2O)[C@](C)(OC)C[C@@H](C)C(=O)[C@H](C)[C@H]2[C@@H](SCCNC(=O)c3ccc4ncccc4c3)C(=O)O[C@@]21C (single isomer, unassigned) [Example 47]	<=0.06 μg/ml	0.125 µg/mL (≈ 0.148 µM)	>32 µg/mL	>32 µg/mL	>32 µg/mL	<=0.06 μg/ml	<=0.06 μg/ml	8 µg/mL (≈ 9.5 µM)	8 µg/mL (≈ 9.5 µM)	4 µg/mL (≈ 4.75 µM)	2 µg/mL (≈ 2.38 µM)	4 µg/mL (≈ 4.75 µM)
CC[C@H]1OC(=O)[C@H](C)C(=O)[C@H](C)[C@@H](O[C@@H]2O[C@H](C)C[C@H](N(C)C)[C@H]2O)[C@](C)(OC)C[C@@H](C)C(=O)[C@H](C)[C@H]2[C@@H](SCCNc3ncnc4[nH]cnc34)C(=O)O[C@@]21C [Example 51]	0.125 µg/mL (≈ 0.155 µM)	1 µg/mL (≈ 1.24 µM)	8 µg/mL (≈ 9.94 µM)	>32 µg/mL	32 µg/mL (≈ 39.8 µM)	<=0.06 μg/ml	1 µg/mL (≈ 1.24 µM)	0.5 µg/mL (≈ 0.621 µM)	4 µg/mL (≈ 4.97 µM)	1 µg/mL (≈ 1.24 µM)	2 µg/mL (≈ 2.48 µM)	1 µg/mL (≈ 1.24 µM)
CC[C@H]1OC(=O)[C@H](C)C(=O)[C@H](C)[C@@H](O[C@@H]2O[C@H](C)C[C@H](N(C)C)[C@H]2O)[C@](C)(OC)C[C@@H](C)C(=O)[C@H](C)[C@H]2[C@@H](SCC(=O)OC)C(=O)O[C@@]21C (single isomer, unassigned) [Example 5]	>32 µg/mL	1 µg/mL (≈ 1.4 µM)	>32 µg/mL	>32 µg/mL	>32 µg/mL	0.125 µg/mL (≈ 0.175 µM)	1 µg/mL (≈ 1.4 µM)	>32 µg/mL	32 µg/mL (≈ 44.7 µM)	32 µg/mL (≈ 44.7 µM)	16 µg/mL (≈ 22.3 µM)	32 µg/mL (≈ 44.7 µM)
CC[C@H]1OC(=O)[C@H](C)C(=O)[C@H](C)[C@@H](O[C@@H]2O[C@H](C)C[C@H](N(C)C)[C@H]2O)[C@](C)(OC)C[C@@H](C)C(=O)[C@H](C)[C@H]2[C@@H](SCCNC(=O)c3ccc(-n4cccn4)nc3)C(=O)O[C@@]21C (single isomer, unassigned) [Example 50]	32 µg/mL (≈ 37.3 µM)	0.25 µg/mL (≈ 0.291 µM)	>32 µg/mL	>32 µg/mL	>32 µg/mL	<=0.06 μg/ml	0.125 µg/mL (≈ 0.146 µM)	32 µg/mL (≈ 37.3 µM)	16 µg/mL (≈ 18.6 µM)	8 µg/mL (≈ 9.32 µM)	4 µg/mL (≈ 4.66 µM)	8 µg/mL (≈ 9.32 µM)
CC[C@H]1OC(=O)[C@@](C)(F)C(=O)[C@H](C)[C@@H](O[C@@H]2O[C@H](C)C[C@H](N(C)C)[C@H]2O)[C@](C)(OC)C[C@@H](C)C(=O)[C@H](C)[C@H]2[C@@H](S(=O)(=O)CCCn3cc(-c4ccccc4)cn3)C(=O)O[C@@]21C [Example 11]	0.25 µg/mL (≈ 0.285 µM)	0.125 µg/mL (≈ 0.142 µM)	16 µg/mL (≈ 18.2 µM)	>32 µg/mL	>32 µg/mL	<=0.06 μg/ml	<=0.06 μg/ml	4 µg/mL (≈ 4.56 µM)	8 µg/mL (≈ 9.11 µM)	8 µg/mL (≈ 9.11 µM)	4 µg/mL (≈ 4.56 µM)	4 µg/mL (≈ 4.56 µM)
